Source: publication PMC9011347, “Small-Molecule Inhibitors Targeting Lipolysis in Human Adipocytes” (Journal of the American Chemical Society, 2022)

Assay: Serum stability of ATGL inhibitors (UHPLC-MS)
Type: in vitro ADME, human
Conditions: 3 h at 37 °C
Experimental: Figure 2 Development and characterization of the human ATGL inhibitor NG-497. (a) Structure and IC50 values of human ATGL inhibitors. (b) Dose-dependent inhibition of human ATGL by respective inhibitors. (c) ATGL activity was determined at the indicated substrate concentrations in the absence and presence of NG-497 (0.5 μM). Ki was determined by nonlinear regression analysis using GraphPad Prism. Lineweaver–Burk analysis of ATGL inhibition is shown in the inset. (d) Toxicity of NG-497 in HepG2 cells was determined after 24 h incubation at indicated concentrations. Cisplatin and DMSO were used as positive and negative controls, respectively. Cytotoxicity was determined using the Roche LDH Kit and calculated as relative LDH release compared to fully lysed cells. (e) Stability of NG-497 was analyzed via ultrahigh-performance liquid chromatography–mass spectrometry (UHPLC-MS) after incubation in human serum for 0 or 3 h at 37 °C. Atglistatin and a chemically related unstable compound were used as controls. […] NG-497 concentrations/well were determined at the indicated time points using UHPLC-MS. […] Statistical significance was determined via t test (*p < 0.05; **p < 0.01; ***p < 0.001) or ANOVA followed by Bonferroni post hoc test (^###p < 0.001). […] The detected 297 lipid species of both groups were analyzed with supervised multivariate analysis OPLS-DA and are shown as a loading plot. […]

## CN(C)C(=O)Nc1cccc(-c2ccc(N(C)C)cc2)c1 [Atglistatin, reference compound]
  stability in human serum: not metabolized

## CCOc1ccc(-c2cc(OC)cc(C(=O)OC(C)C)n2)cc1 [NG-497]
  stability in human serum: not metabolized
